System: MV-4-11 cells
Assay: Gene expression microarray analysis (Affymetrix PrimeView) and GSEA
Assay type: cell-based, human
Set-up: RFU PODN (11730768_x_at) / Fold change /veh PODN (11730768_x_at) / RFU LINC00158 (11744669_a_at) / Fold change /veh LINC00158 (11744669_a_at) / RFU DUSP10 (11751237_a_at) / Fold change /veh DUSP10 (11751237_a_at) / RFU ID3 (11757404_x_at) / Fold change /veh ID3 (11757404_x_at) / RFU PLEKHG5 (11737974_s_at) / Fold change /veh PLEKHG5 (11737974_s_at) / RFU LRRC4B (11730491_at) / Fold change /veh LRRC4B (11730491_at) / RFU GIMAP4 (11747438_a_at) / Fold change /veh GIMAP4 (11747438_a_at) / RFU KRT8 (11758183_x_at) / Fold change /veh KRT8 (11758183_x_at) / RFU CNN1 (11734310_a_at) / Fold change /veh CNN1 (11734310_a_at) / RFU VPS37D (11726825_at) / Fold change /veh VPS37D (11726825_at) / RFU C10orf10 (11716522_x_at) / Fold change /veh C10orf10 (11716522_x_at) / RFU KIR2DL2 /// KIR2DL4 /// KIR2DL5A /// KIR2DL5B /// KIR2DS1 /// KIR2DS2 /// KIR2DS3 /// KIR2DS4 /// KIR3DL3 /// KIR3DL3 /// KIR3DS1 (11738374_at) / Fold change /veh KIR2DL2 /// KIR2DL4 /// KIR2DL5A /// KIR2DL5B /// KIR2DS1 /// KIR2DS2 /// KIR2DS3 /// KIR2DS4 /// KIR3DL3 /// KIR3DL3 /// KIR3DS1 (11738374_at) / RFU C1QL1 (11718748_at) / Fold change /veh C1QL1 (11718748_at) / RFU TMPRSS4 (11747572_a_at) / Fold change /veh TMPRSS4 (11747572_a_at) / RFU HAMP (11756126_x_at) / Fold change /veh HAMP (11756126_x_at) / RFU RNFT2 (11725882_a_at) / Fold change /veh RNFT2 (11725882_a_at) / RFU NR4A2 (11747474_a_at) / Fold change /veh NR4A2 (11747474_a_at) / RFU ABCC12 (11746883_a_at) / Fold change /veh ABCC12 (11746883_a_at) / RFU TMEM136 (11760407_x_at) / Fold change /veh TMEM136 (11760407_x_at) / RFU CLDN22 /// WWC2 (11732394_at) / Fold change /veh CLDN22 /// WWC2 (11732394_at) / RFU HLA-DPB1 (11760878_x_at) / Fold change /veh HLA-DPB1 (11760878_x_at) / RFU SPINT1 (11716480_a_at) / Fold change /veh SPINT1 (11716480_a_at) / RFU GAP43 (11754022_s_at) / Fold change /veh GAP43 (11754022_s_at) / RFU A4GNT (11735810_at) / Fold change /veh A4GNT (11735810_at) / RFU PRB3 (11715151_x_at) / Fold change /veh PRB3 (11715151_x_at) / RFU TUBB4B (11761932_at) / Fold change /veh TUBB4B (11761932_at) / RFU CAPN14 (11732068_a_at) / Fold change /veh CAPN14 (11732068_a_at) / RFU TMCC2 (11721928_a_at) / Fold change /veh TMCC2 (11721928_a_at) / RFU IRGQ (11745062_a_at) / Fold change /veh IRGQ (11745062_a_at) / RFU FAM174B (11720279_a_at) / Fold change /veh FAM174B (11720279_a_at) / RFU TMPRSS4 (11748680_a_at) / Fold change /veh TMPRSS4 (11748680_a_at) / RFU FAM212B (11763350_a_at) / Fold change /veh FAM212B (11763350_a_at) / RFU PLEKHG5 (11743358_a_at) / Fold change /veh PLEKHG5 (11743358_a_at) / RFU ZSCAN30 (11745921_a_at) / Fold change /veh ZSCAN30 (11745921_a_at) / RFU CMKLR1 (11741424_a_at) / Fold change /veh CMKLR1 (11741424_a_at) / RFU LOC101060620 /// MAPK8IP1 (11723275_at) / Fold change /veh LOC101060620 /// MAPK8IP1 (11723275_at) / RFU SPTSSB (11747773_x_at) / Fold change /veh SPTSSB (11747773_x_at) / RFU PRSS12 (11739890_at) / Fold change /veh PRSS12 (11739890_at) / RFU BIN1 (11741810_x_at) / Fold change /veh BIN1 (11741810_x_at) / RFU WNT11 (11732464_a_at) / Fold change /veh WNT11 (11732464_a_at) / RFU C10orf10 (11716521_a_at) / Fold change /veh C10orf10 (11716521_a_at) / RFU C5orf56 (11738089_at) / Fold change /veh C5orf56 (11738089_at) / RFU CYB561 (11721691_x_at) / Fold change /veh CYB561 (11721691_x_at) / RFU ANKRD19P (11752326_a_at) / Fold change /veh ANKRD19P (11752326_a_at) / RFU OR2T12 /// OR2T33 /// OR2T8 (11738714_s_at) / Fold change /veh OR2T12 /// OR2T33 /// OR2T8 (11738714_s_at) / RFU VCAN (11748164_a_at) / Fold change /veh VCAN (11748164_a_at) / RFU JSRP1 (11732532_at) / Fold change /veh JSRP1 (11732532_at) / RFU KRTAP10-11 (11738290_x_at) / Fold change /veh KRTAP10-11 (11738290_x_at) / RFU MYO3A (11730013_a_at) / Fold change /veh MYO3A (11730013_a_at) / RFU EBF3 (11725865_a_at) / Fold change /veh EBF3 (11725865_a_at) / RFU CAMK2N1 (11719241_x_at) / Fold change /veh CAMK2N1 (11719241_x_at) / RFU C5orf56 (11738088_a_at) / Fold change /veh C5orf56 (11738088_a_at) / RFU OLFML3 (11715873_a_at) / Fold change /veh OLFML3 (11715873_a_at) / RFU LOC100653217 /// NTM (11731650_a_at) / Fold change /veh LOC100653217 /// NTM (11731650_a_at) / RFU MAPK11 (11762145_a_at) / Fold change /veh MAPK11 (11762145_a_at) / RFU FIZ1 (11724087_x_at) / Fold change /veh FIZ1 (11724087_x_at) / RFU OASL (11726364_x_at) / Fold change /veh OASL (11726364_x_at) / RFU SOX15 (11748057_x_at) / Fold change /veh SOX15 (11748057_x_at) / RFU CD79A (11719716_a_at) / Fold change /veh CD79A (11719716_a_at) / RFU HIST1H1D (11736915_at) / Fold change /veh HIST1H1D (11736915_at) / RFU CASKIN2 (11723855_a_at) / Fold change /veh CASKIN2 (11723855_a_at) / RFU LOC730098 (11760151_x_at) / Fold change /veh LOC730098 (11760151_x_at) / RFU OR4N2 (11742367_at) / Fold change /veh OR4N2 (11742367_at) / RFU PRRT2 (11749266_a_at) / Fold change /veh PRRT2 (11749266_a_at) / RFU SNX32 (11753110_a_at) / Fold change /veh SNX32 (11753110_a_at) / RFU CDHR5 (11726645_a_at) / Fold change /veh CDHR5 (11726645_a_at) / RFU RCAN1 (11760418_a_at) / Fold change /veh RCAN1 (11760418_a_at) / RFU FAM167A (11723789_a_at) / Fold change /veh FAM167A (11723789_a_at) / RFU FAM26E (11764081_at) / Fold change /veh FAM26E (11764081_at) / RFU ISYNA1 (11749810_s_at) / Fold change /veh ISYNA1 (11749810_s_at) / RFU ACY1 (11761880_at) / Fold change /veh ACY1 (11761880_at) / RFU 11764098_at / Fold change /veh 11764098_at / RFU SAMD14 (11745864_x_at) / Fold change /veh SAMD14 (11745864_x_at) / RFU NPB (11741838_a_at) / Fold change /veh NPB (11741838_a_at) / RFU TMPRSS6 (11731388_a_at) / Fold change /veh TMPRSS6 (11731388_a_at) / RFU KRTAP10-2 (11738614_at) / Fold change /veh KRTAP10-2 (11738614_at) / RFU ARHGAP8 /// PRR5-ARHGAP8 (11727945_x_at) / Fold change /veh ARHGAP8 /// PRR5-ARHGAP8 (11727945_x_at) / RFU KRTAP5-7 /// NADSYN1 (11734609_at) / Fold change /veh KRTAP5-7 /// NADSYN1 (11734609_at) / RFU RASL12 (11751679_a_at) / Fold change /veh RASL12 (11751679_a_at) / RFU CDKN2B (11736163_a_at) / Fold change /veh CDKN2B (11736163_a_at) / RFU PRF1 (11729649_at) / Fold change /veh PRF1 (11729649_at) / RFU, ZNF638 /// ZNF638-IT1 / Fold change vs veh, ZNF638 /// ZNF638-IT1 / RFU, PANK3 / Fold change vs veh, PANK3 / RFU, SH3YL1 / Fold change vs veh, SH3YL1 / RFU, ZEB2 / Fold change vs veh, ZEB2 / RFU, NRIP1 / Fold change vs veh, NRIP1 / RFU, PTTG1IP / Fold change vs veh, PTTG1IP / RFU, CAPN2 / Fold change vs veh, CAPN2 / RFU, MED14 / Fold change vs veh, MED14 / RFU, SNORA58 / Fold change vs veh, SNORA58 / RFU, C1orf63 / Fold change vs veh, C1orf63 / RFU, LRRFIP1 / Fold change vs veh, LRRFIP1 / RFU, NDUFAF7 / Fold change vs veh, NDUFAF7 / RFU, SLC12A2 / Fold change vs veh, SLC12A2 / RFU, IBTK / Fold change vs veh, IBTK / RFU, ESF1 / Fold change vs veh, ESF1 / Fold change vs veh, TMEM50B / RFU, TAOK1 / Fold change vs veh, TAOK1 / RFU, ACBD3 / Fold change vs veh, ACBD3 / RFU, TMA16 / Fold change vs veh, TMA16 / RFU, RWDD3 / Fold change vs veh, RWDD3 / RFU, BCAT1 / Fold change vs veh, BCAT1 / RFU, EDEM3 / Fold change vs veh, EDEM3 / RFU, TMEM33 / Fold change vs veh, TMEM33 / RFU, WDR75 / Fold change vs veh, WDR75 / RFU, AHCTF1 / Fold change vs veh, AHCTF1 / RFU, TFRC / Fold change vs veh, TFRC / RFU, ZDHHC17 / Fold change vs veh, ZDHHC17 / RFU, NOM1 / Fold change vs veh, NOM1 / RFU, ARL8B / Fold change vs veh, ARL8B / RFU, ZBTB11 / Fold change vs veh, ZBTB11 / RFU, TAMM41 / Fold change vs veh, TAMM41 / RFU, KIAA1704 /// LOC100996395 / Fold change vs veh, KIAA1704 /// LOC100996395 / RFU, ING1 / Fold change vs veh, ING1 / RFU, TRMT61B / Fold change vs veh, TRMT61B / RFU, FUBP3 / Fold change vs veh, FUBP3 / RFU, TP53 / Fold change vs veh, TP53 / RFU, TNKS2 / Fold change vs veh, TNKS2 / RFU, ZFP14 / Fold change vs veh, ZFP14 / RFU, ACTR2 / Fold change vs veh, ACTR2 / RFU, PPP3R1 / Fold change vs veh, PPP3R1 / RFU, PIK3R1 / Fold change vs veh, PIK3R1 / RFU, HNRNPA1 / Fold change vs veh, HNRNPA1 / RFU, RNF170 / Fold change vs veh, RNF170 / RFU, ZNF28 / Fold change vs veh, ZNF28 / RFU, RNGTT / Fold change vs veh, RNGTT / RFU, OGT / Fold change vs veh, OGT / RFU, BRD1 / Fold change vs veh, BRD1 / RFU, MARS / Fold change vs veh, MARS / RFU, ZNF655 / Fold change vs veh, ZNF655 / RFU, FAHD1 / Fold change vs veh, FAHD1 / RFU, BDP1 / Fold change vs veh, BDP1 / RFU, LRRCC1 / Fold change vs veh, LRRCC1 / RFU, ARID1A / Fold change vs veh, ARID1A / RFU, ZNF146 / Fold change vs veh, ZNF146 / RFU, ZNF330 / Fold change vs veh, ZNF330 / RFU, GPN3 / Fold change vs veh, GPN3 / RFU, C9orf123 / Fold change vs veh, C9orf123 / RFU, N4BP2L2 / Fold change vs veh, N4BP2L2 / RFU, ARFIP1 / Fold change vs veh, ARFIP1 / RFU, FAM179B / Fold change vs veh, FAM179B / RFU, BCL10 / Fold change vs veh, BCL10 / RFU, UHRF1BP1L / Fold change vs veh, UHRF1BP1L / RFU, BET1 / Fold change vs veh, BET1 / RFU, CNOT2 / Fold change vs veh, CNOT2 / RFU, ZNF268 / Fold change vs veh, ZNF268 / Fold change vs veh, ZNF507 / RFU, DGCR2 / Fold change vs veh, DGCR2 / RFU, WDSUB1 / Fold change vs veh, WDSUB1 / Fold change vs veh, HSP90B1 /// MIR3652 / RFU, ADSS / Fold change vs veh, ADSS / RFU, GK / Fold change vs veh, GK / RFU, ZNF148 / Fold change vs veh, ZNF148 / RFU, TAF9 / Fold change vs veh, TAF9 / RFU, SLC1A5 / Fold change vs veh, SLC1A5 / RFU, SLMO2 / Fold change vs veh, SLMO2 / RFU, ABCC4 / Fold change vs veh, ABCC4 / RFU, LOC101060439 /// RAP1B / Fold change vs veh, LOC101060439 /// RAP1B / RFU, RFX7 / Fold change vs veh, RFX7 / RFU, GTPBP10 / Fold change vs veh, GTPBP10 / RFU, CNEP1R1 / Fold change vs veh, CNEP1R1 / RFU, BIVM-ERCC5 /// ERCC5 / Fold change vs veh, BIVM-ERCC5 /// ERCC5 / RFU, ILF3 / Fold change vs veh, ILF3 / RFU 11762660_at / Fold change /veh 11762660_at / RFU VCAN (11757783_s_at) / Fold change /veh VCAN (11757783_s_at) / RFU DDX43 (11728927_at) / Fold change /veh DDX43 (11728927_at) / RFU KRT8 (11758188_x_at) / Fold change /veh KRT8 (11758188_x_at) / RFU NKD1 (11759106_at) / Fold change /veh NKD1 (11759106_at) / RFU SRD5A1 (11742802_a_at) / Fold change /veh SRD5A1 (11742802_a_at) / RFU TPSAB1 /// TPSB2 (11721975_s_at) / Fold change /veh TPSAB1 /// TPSB2 (11721975_s_at) / RFU GSTM3 (11746129_a_at) / Fold change /veh GSTM3 (11746129_a_at) / RFU IL23R (11737362_x_at) / Fold change /veh IL23R (11737362_x_at) / RFU TMEM51 (11727254_a_at) / Fold change /veh TMEM51 (11727254_a_at) / RFU PIWIL2 (11732686_x_at) / Fold change /veh PIWIL2 (11732686_x_at) / RFU ORM1 (11744905_x_at) / Fold change /veh ORM1 (11744905_x_at) / RFU CCDC152 (11743942_at) / Fold change /veh CCDC152 (11743942_at) / RFU ECM1 (11717891_a_at) / Fold change /veh ECM1 (11717891_a_at) / RFU IL23R (11748794_a_at) / Fold change /veh IL23R (11748794_a_at) / RFU TNFAIP8L3 (11732012_x_at) / Fold change /veh TNFAIP8L3 (11732012_x_at) / RFU MBOAT4 (11741988_at) / Fold change /veh MBOAT4 (11741988_at) / RFU 11764193_at / Fold change /veh 11764193_at / RFU TMEM53 (11763286_at) / Fold change /veh TMEM53 (11763286_at) / RFU MAGEB2 (11727129_at) / Fold change /veh MAGEB2 (11727129_at) / RFU TMEM200A (11744735_a_at) / Fold change /veh TMEM200A (11744735_a_at) / RFU CCDC152 (11751479_a_at) / Fold change /veh CCDC152 (11751479_a_at) / RFU FAM211A (11726209_a_at) / Fold change /veh FAM211A (11726209_a_at) / RFU RGS16 (11746705_a_at) / Fold change /veh RGS16 (11746705_a_at) / RFU VCAN (11755009_s_at) / Fold change /veh VCAN (11755009_s_at) / RFU RHOB (11743442_s_at) / Fold change /veh RHOB (11743442_s_at) / RFU RGS16 (11720943_a_at) / Fold change /veh RGS16 (11720943_a_at) / RFU RGS16 (11720944_at) / Fold change /veh RGS16 (11720944_at) / RFU, VPS4B / Fold change vs veh, VPS4B / RFU, CREB1 / Fold change vs veh, CREB1 / RFU, DNAJC13 / Fold change vs veh, DNAJC13 / RFU, GNAQ / Fold change vs veh, GNAQ / RFU, CDK5R1 / Fold change vs veh, CDK5R1 / RFU, ZRANB3 / Fold change vs veh, ZRANB3 / RFU, CUL4A / Fold change vs veh, CUL4A / RFU, CCNY / Fold change vs veh, CCNY / RFU, UFL1 / Fold change vs veh, UFL1 / RFU, COG3 / Fold change vs veh, COG3 / RFU, DIAPH2 / Fold change vs veh, DIAPH2 / RFU, SKA2 / Fold change vs veh, SKA2 / RFU, AFF3 / Fold change vs veh, AFF3 / RFU, LMF1 / Fold change vs veh, LMF1 / RFU, IPO11 / Fold change vs veh, IPO11 / RFU, DFFB / Fold change vs veh, DFFB / RFU, FOXP1 / Fold change vs veh, FOXP1 / RFU, CARD8 / Fold change vs veh, CARD8 / RFU, STRN3 / Fold change vs veh, STRN3 / RFU, ADK / Fold change vs veh, ADK / RFU, RASSF2 / Fold change vs veh, RASSF2 / RFU, WIPF1 / Fold change vs veh, WIPF1 / RFU, LARP1B / Fold change vs veh, LARP1B / RFU, RASA1 / Fold change vs veh, RASA1 / RFU, RB1 / Fold change vs veh, RB1 / RFU, PPFIA1 / Fold change vs veh, PPFIA1 / RFU, MAT2A / Fold change vs veh, MAT2A / RFU, CCT5 / Fold change vs veh, CCT5 / RFU, WDR92 / Fold change vs veh, WDR92 / RFU, CUX1 / Fold change vs veh, CUX1 / RFU, TTC7A / Fold change vs veh, TTC7A / RFU, TMEM135 / Fold change vs veh, TMEM135 / RFU, DEPTOR / Fold change vs veh, DEPTOR / RFU, CPM / Fold change vs veh, CPM / RFU, DNAJB6 / Fold change vs veh, DNAJB6 / RFU, CACNA2D3 / Fold change vs veh, CACNA2D3 / RFU, DTX4 / Fold change vs veh, DTX4 / RFU, TFCP2 / Fold change vs veh, TFCP2 / RFU, GMCL1 /// GMCL1P1 / Fold change vs veh, GMCL1 /// GMCL1P1 / RFU, AEBP2 / Fold change vs veh, AEBP2 / RFU, SNHG1 /// SNORD22 /// SNORD25 /// SNORD26 /// SNORD27 /// SNORD28 /// SNORD29 /// SNORD31 / Fold change vs veh, SNHG1 /// SNORD22 /// SNORD25 /// SNORD26 /// SNORD27 /// SNORD28 /// SNORD29 /// SNORD31 / Fold change (Aza/veh), C12orf56 (ProbeSet 11735607_a_at) / Fold change (ACY-1035/veh), C12orf56 (ProbeSet 11735607_a_at) / Fold change (Aza/veh), FGFR1OP (ProbeSet 11751329_s_at) / Fold change (ACY-1035/veh), FGFR1OP (ProbeSet 11751329_s_at) / Fold change (Aza/veh), VPS36 (ProbeSet 11739960_a_at) / Fold change (ACY-1035/veh), VPS36 (ProbeSet 11739960_a_at) / RFU SYPL1 (11715823_x_at) / Fold change /veh SYPL1 (11715823_x_at) / RFU IGFBP7 (11715501_s_at) / Fold change /veh IGFBP7 (11715501_s_at) / RFU REEP3 (11722064_at) / Fold change /veh REEP3 (11722064_at) / RFU IGLL1 (11728026_x_at) / Fold change /veh IGLL1 (11728026_x_at): dose or concentration left out as unconfirmed
Settings: MV-4-11 cells, 48 hours

Nc1ccc(-c2cccs2)cc1NC(=O)c1ccc2c(c1)cc(C1CC1)n2CCN1CCOCC1 [ACY-1035]
Fold change /veh KRTAP10-11 (11738290_x_at): 1.00
